From ChEMBL document CHEMBL1201862, “PubChem BioAssay data set” (2004)
The source made the active and inactive calls.

Legend:
[1] = cells; assay type: functional, cell-based
[2] = molecular target: T1, Trace amine-associated receptor 1 (Homo sapiens, UniProt Q96RJ0); test: Fluorescence-based cell-based high throughput dose response assay to identify agonists of the human trace amine associated receptor 1 (TAAR1).; assay type: functional
T1 sequence (Q96RJ0 whole entry): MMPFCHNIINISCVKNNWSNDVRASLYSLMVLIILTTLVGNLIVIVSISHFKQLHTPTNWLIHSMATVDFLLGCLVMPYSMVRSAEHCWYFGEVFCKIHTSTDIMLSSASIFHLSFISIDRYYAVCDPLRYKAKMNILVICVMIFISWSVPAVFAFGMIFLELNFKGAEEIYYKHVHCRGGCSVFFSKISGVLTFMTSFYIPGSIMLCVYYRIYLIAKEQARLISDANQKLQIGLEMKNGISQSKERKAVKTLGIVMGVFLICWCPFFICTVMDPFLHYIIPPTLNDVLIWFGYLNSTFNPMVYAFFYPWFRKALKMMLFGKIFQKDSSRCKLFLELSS

[3] = molecular target: T1, Trace amine-associated receptor 1; test: Counterscreen for agonists of the human trace amine associated receptor 1 (hTAAR1): Fluorescence-based cell-based high throughput dose response assay to identify hTAAR1 agonist that also desensitize TAAR1 receptor response.; assay type: functional
[4] = cells; assay type: functional, cell-based; remark: listed apart in the source
[5] = molecular target: Voltage-dependent T-type calcium channel subunit alpha-1H (Homo sapiens, UniProt O95180); assay type: functional;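 note: channel activity triggered by adding a high calcium stimulation buffer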
[6] = test system: HEK293; test: inhibition of NOD1-driven NF-kB reporter – cell-based, luminescence, uHTS, primary screen (AID 1578); assay type: functional; conditions: Homo sapiens
[7] = test system: HEK293; test: cells; assay type: functional, cell-based; conditions: Homo sapiens
[8] = test system: HEK293; test: cells; assay type: functional, cell-based; conditions: Homo sapiens; remark: listed apart in the source
[9] = molecular target: Nucleotide-binding oligomerization domain-containing protein 2 (Homo sapiens, UniProt Q9HC29); test: inhibition of NOD2-driven NF-kB reporter – cell-based, luminescence, uHTS, HEK293 (AID 1566); assay type: functional
[10] = test system: HEK293; test: NOD2 signaling inhibitors in MDP-stimulated cells, cell-based, uHTS, luminescence (AID 2001); assay type: functional; conditions: Homo sapiens
[11] = test system: HEK293; test: cells; assay type: functional, cell-based; conditions: Homo sapiens; remark: listed apart in the source
[12] = viability of uninfected HEp-2 cells – cell-based, HTS, cytotoxicity control for RSV inhibitor project, dose response (AID 2410); assay type: functional; conditions: human respiratory syncytial virus
[13] = molecular target: Estrogen receptor beta (Homo sapiens, UniProt Q92731);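 note: recombinant ER-beta bound to coactivator SRC1 peptide in presence of estradiol agonist; inhibitors block coactivator peptide binding and lower the FRET signal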
[14] = molecular target: Protein-tyrosine kinase 2-beta (Homo sapiens, UniProt Q14289);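 note: potency of inhibitors of PYK2 kinase phosphorylation of poly-GT substrate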
[15] = molecular target: T2, Coagulation factor XII (Homo sapiens, UniProt P00748); assay type: functional;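 note: activated factor XIIa alpha cleaving a fluorogenic AMC peptide substrate; inhibitor potency from loss of enzyme activity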
T2 sequence (P00748 whole entry): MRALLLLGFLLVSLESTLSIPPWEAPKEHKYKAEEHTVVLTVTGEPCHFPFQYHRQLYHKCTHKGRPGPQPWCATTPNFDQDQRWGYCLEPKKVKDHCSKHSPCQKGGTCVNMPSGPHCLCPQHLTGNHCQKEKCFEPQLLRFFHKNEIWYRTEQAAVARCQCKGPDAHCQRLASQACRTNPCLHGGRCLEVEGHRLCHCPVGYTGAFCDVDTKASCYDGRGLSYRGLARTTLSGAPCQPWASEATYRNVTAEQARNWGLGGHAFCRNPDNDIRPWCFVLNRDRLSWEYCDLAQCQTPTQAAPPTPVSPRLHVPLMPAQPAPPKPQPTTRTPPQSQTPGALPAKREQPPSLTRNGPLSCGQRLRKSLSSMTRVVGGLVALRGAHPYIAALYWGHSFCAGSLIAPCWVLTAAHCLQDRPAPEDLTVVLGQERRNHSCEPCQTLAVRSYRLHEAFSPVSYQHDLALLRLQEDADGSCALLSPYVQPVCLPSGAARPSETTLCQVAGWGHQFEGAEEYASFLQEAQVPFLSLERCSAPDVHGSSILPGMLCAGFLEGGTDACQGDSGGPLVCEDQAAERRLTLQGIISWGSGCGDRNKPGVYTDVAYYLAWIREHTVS

[16] = molecular target: Alkaline phosphatase, placental type (Homo sapiens, UniProt P05187); test: human placental alkaline phosphatase inhibition – biochemical, luminescence, confirmation (AID 1512); assay type: functional
[17] = molecular target: T3, Alkaline phosphatase, tissue-nonspecific isozyme (Homo sapiens, UniProt P05186); test: potency against alkaline phosphatase TNAP – biochemical, luminescent, dose response, SAR follow-up (AID 1056)
T3 sequence (P05186 whole entry): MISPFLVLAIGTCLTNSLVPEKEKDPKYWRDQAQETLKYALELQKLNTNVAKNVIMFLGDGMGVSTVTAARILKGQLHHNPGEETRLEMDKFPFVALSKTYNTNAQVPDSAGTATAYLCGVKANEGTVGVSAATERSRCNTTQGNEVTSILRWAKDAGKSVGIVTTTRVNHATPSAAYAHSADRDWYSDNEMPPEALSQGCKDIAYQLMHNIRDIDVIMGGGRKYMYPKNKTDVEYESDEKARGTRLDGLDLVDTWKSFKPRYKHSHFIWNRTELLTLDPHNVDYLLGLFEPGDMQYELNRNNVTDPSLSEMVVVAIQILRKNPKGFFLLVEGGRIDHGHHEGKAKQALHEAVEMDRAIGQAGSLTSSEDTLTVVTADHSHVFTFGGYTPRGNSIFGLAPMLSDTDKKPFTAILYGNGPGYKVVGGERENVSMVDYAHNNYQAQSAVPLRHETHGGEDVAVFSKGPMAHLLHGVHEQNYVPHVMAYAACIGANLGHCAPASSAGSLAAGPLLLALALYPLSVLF

[18] = rise of 2N DNA cells, HeLa – IC50, dose response (AID 1117349); assay type: functional, cell-based
[19] = rise of 4N DNA cells, HeLa – IC50, dose response (AID 1117351); assay type: functional, cell-based
[20] = test system: Streptococcus sp. 'group A'; test: Streptococcus pyogenes SK(-)GAS viability under kanamycin – luminescence, BacTiterGlo, confirmation, counter-screen for streptokinase expression inhibitor project, dose response (AID 1900); assay type: functional, organism-based
[21] = cells; assay type: functional, cell-based; remark: listed apart in the source
[22] = cells; assay type: functional, cell-based; remark: listed apart in the source
[23] = test system: Streptococcus; test: GAS UMAA2166 growth inhibition – luminescence, BacTiterGlo, counter-screen for streptokinase expression inhibitor project, dose response (AID 1915); assay type: functional, organism-based;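 note: potency for reduction of bacterial viability or growth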
[24] = test system: INS1; test: INS-1E survival protection against cytokine death – cell-based, luminescence, retest, dose response (AID 449756); assay type: functional; conditions: Rattus norvegicus;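 note: cell death triggered by IL-1 beta plus TNF-alpha plus IFN-gamma mixture; protective hits raise ATP signal compared with cytokine alone wells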
[25] = microbe, parasite or virus in culture; assay type: functional; conditions: Mycobacterium tuberculosis
[26] = molecular target: Cytochrome P450 2C19 (Homo sapiens, UniProt P33261); test: Cytochrome panel assay with activity outcomes. Panel member name: p450-cyp2c19 Compounds with AC50 equal or less than 10 uM are considered active; assay type: functional

Chain of Nucleotide-binding oligomerization domain-containing protein 2 (Q9HC29 whole entry, the tested form may be a part): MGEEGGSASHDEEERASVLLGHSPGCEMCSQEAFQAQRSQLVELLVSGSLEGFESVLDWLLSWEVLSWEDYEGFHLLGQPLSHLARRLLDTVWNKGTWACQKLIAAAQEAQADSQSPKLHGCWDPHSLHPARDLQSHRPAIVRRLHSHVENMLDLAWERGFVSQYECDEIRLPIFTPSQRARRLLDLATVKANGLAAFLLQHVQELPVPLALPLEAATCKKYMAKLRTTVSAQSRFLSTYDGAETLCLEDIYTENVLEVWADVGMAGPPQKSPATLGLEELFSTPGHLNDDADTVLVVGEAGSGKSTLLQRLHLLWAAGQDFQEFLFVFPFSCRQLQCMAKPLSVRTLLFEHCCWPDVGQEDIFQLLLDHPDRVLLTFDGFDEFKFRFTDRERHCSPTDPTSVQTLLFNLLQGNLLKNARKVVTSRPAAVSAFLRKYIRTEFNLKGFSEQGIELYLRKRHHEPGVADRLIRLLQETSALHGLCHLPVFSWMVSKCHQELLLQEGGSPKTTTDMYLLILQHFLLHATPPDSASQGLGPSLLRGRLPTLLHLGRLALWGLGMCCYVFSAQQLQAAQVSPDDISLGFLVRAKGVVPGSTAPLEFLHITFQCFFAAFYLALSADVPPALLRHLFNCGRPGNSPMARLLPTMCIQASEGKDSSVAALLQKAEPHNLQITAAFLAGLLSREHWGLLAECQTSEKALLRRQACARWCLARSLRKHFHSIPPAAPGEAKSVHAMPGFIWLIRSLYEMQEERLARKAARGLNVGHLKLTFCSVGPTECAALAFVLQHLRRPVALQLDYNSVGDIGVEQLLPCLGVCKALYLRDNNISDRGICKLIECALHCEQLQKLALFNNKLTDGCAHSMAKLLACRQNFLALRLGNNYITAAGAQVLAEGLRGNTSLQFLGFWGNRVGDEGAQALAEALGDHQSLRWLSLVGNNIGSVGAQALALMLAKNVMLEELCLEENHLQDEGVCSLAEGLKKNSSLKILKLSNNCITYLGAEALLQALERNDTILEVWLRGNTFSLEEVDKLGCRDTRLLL
Chain of Voltage-dependent T-type calcium channel subunit alpha-1H (O95180 whole entry): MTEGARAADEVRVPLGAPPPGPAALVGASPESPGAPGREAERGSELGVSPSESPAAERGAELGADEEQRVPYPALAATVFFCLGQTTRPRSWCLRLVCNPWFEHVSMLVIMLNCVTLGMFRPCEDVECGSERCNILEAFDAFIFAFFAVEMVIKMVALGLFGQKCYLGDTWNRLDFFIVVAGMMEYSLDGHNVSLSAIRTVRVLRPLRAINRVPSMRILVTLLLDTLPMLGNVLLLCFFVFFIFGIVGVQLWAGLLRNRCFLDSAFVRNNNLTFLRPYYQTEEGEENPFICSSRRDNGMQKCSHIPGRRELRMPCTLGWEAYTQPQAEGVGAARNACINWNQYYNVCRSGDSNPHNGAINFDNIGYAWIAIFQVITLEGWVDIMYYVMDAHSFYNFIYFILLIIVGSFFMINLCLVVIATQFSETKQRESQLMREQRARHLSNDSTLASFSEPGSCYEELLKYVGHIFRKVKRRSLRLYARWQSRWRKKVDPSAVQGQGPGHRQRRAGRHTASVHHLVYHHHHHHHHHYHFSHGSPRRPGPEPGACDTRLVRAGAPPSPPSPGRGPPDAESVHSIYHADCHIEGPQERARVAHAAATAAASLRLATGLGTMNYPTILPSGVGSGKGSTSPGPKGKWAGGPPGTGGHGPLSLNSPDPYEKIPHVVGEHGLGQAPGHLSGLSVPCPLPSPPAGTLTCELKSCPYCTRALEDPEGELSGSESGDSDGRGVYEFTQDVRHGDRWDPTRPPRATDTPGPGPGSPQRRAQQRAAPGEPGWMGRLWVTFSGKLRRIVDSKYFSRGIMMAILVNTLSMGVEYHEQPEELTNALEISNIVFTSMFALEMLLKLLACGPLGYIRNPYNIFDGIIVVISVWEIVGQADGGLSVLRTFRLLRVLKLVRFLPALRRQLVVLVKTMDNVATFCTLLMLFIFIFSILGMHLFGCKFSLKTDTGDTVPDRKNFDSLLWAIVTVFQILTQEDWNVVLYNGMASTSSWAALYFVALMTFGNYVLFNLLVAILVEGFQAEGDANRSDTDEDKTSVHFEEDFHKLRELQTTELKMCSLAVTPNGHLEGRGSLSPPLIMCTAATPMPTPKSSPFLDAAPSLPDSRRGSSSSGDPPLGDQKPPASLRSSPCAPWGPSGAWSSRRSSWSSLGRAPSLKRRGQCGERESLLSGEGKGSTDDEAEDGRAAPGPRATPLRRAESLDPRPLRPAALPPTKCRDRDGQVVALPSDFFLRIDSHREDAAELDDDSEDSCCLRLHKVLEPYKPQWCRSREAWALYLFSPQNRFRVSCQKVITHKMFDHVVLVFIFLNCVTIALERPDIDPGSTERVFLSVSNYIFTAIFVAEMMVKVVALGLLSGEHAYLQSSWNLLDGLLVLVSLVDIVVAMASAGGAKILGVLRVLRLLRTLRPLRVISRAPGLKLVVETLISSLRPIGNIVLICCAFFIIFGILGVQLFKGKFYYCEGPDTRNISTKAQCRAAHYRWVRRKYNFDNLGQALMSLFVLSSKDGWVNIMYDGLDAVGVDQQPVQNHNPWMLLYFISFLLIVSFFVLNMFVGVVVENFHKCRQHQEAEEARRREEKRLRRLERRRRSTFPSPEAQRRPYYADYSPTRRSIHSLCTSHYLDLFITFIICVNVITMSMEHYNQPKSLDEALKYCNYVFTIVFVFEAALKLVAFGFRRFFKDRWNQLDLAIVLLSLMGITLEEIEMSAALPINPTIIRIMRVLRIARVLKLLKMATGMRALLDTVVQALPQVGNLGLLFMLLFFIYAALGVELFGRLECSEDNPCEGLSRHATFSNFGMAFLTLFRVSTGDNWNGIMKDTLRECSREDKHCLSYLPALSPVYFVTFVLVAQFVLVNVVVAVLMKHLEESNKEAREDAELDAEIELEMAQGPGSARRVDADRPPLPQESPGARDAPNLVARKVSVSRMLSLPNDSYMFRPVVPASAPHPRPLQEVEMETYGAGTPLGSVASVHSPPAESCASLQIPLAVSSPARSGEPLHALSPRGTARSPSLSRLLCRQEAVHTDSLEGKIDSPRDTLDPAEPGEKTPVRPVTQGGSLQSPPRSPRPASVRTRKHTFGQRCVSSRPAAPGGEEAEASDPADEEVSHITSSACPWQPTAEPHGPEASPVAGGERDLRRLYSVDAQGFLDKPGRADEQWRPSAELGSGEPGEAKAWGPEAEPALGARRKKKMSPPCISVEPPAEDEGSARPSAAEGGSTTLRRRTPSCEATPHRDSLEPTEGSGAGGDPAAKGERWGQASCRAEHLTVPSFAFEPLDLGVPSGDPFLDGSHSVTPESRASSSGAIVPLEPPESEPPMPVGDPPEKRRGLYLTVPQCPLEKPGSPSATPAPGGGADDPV
Chain of Protein-tyrosine kinase 2-beta (Q14289 whole entry): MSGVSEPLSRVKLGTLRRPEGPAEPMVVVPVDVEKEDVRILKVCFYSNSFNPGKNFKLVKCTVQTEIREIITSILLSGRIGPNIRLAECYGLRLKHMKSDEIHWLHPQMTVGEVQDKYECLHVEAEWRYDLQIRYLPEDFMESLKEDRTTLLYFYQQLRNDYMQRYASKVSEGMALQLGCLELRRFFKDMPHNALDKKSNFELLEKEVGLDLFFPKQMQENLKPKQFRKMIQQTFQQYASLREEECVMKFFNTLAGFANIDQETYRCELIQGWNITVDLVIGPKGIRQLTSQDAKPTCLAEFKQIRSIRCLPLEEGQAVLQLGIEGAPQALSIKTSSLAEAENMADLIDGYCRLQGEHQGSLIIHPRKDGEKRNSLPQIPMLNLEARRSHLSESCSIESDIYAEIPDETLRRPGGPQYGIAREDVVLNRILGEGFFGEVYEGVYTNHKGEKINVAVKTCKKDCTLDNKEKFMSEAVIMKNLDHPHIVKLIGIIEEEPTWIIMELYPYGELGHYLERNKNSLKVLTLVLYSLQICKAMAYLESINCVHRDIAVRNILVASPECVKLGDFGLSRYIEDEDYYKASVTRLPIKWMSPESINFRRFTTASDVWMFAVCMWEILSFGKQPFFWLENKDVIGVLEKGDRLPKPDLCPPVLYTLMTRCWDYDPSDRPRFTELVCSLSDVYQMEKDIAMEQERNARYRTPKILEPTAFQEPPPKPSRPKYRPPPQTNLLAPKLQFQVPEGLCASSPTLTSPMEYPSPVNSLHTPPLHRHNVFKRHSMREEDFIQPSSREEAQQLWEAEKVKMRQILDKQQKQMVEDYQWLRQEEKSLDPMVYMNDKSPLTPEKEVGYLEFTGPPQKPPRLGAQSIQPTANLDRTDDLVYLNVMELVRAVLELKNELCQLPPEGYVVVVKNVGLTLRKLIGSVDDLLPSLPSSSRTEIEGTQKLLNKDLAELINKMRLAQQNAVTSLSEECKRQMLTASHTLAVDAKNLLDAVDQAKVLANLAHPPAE
Chain of Estrogen receptor beta (Q92731 whole entry): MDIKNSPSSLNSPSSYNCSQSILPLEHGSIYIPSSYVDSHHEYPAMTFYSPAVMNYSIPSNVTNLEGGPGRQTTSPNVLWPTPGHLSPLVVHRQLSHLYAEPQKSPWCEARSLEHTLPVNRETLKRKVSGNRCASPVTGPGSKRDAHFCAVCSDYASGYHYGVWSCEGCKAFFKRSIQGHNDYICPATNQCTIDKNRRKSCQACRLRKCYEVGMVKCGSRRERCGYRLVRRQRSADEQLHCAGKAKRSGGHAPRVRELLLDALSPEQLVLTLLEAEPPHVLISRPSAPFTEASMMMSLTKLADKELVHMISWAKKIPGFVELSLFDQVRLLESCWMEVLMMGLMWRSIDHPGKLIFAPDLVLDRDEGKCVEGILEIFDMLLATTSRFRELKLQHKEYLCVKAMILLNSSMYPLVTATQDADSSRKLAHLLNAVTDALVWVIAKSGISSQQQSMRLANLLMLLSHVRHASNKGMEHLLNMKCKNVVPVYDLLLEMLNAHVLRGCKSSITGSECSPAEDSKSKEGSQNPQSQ

## O=C(Nc1ccc(F)cc1)Nc1ccc(Oc2ncnc3cc(Cl)ccc23)nc1
[1]
  IC50: > 29.9 µM (inactive)
[2]
  EC50: > 29.9 µM (inactive)
[3]
  IC50: 0.373 µM (active)
[4]
  EC50: > 29.9 µM (inactive)

## CC(C)Oc1cc(NC(=O)C[S+]([O-])CC(=O)Nc2cccc(C(F)(F)F)c2)c(Cl)cc1Cl (stereo not drawn)
[5]
  EC50: 3.23 µM (active)

## COc1ccc(CCNc2oc(COc3ccc(Br)cc3)nc2C#N)cc1OC
[6]
  EC50: 10.5 µM (active)
[7]
  IC50: 5.86 µM (active)
[8]
  IC50: 8.84 µM (active)
[9]
  EC50: 12.8 µM (active)
[10]
  IC50: 5.07 µM (active)
[11]
  IC50: > 20 µM (inactive)

## COc1ccc(N(C)C(=O)c2ccc3nc(-c4ccccc4)c(-c4ccccc4)nc3c2)cc1
[12]
  CC50: 12.8 µM (active)
[5]
  EC50: 3.17 µM (active)

## Cc1cc(C)cc(OCC(=O)Nc2ccc(N3CCCC3)cc2)c1
[13]
  IC50: 1.56 µM (active)
[14]
  IC50: 7.74 µM (active)
[15]
  IC50: > 50 µM (inactive)

## COc1ccc(-n2c(C)c([N+](=O)[O-])c3ccc(O)c(CN4CCCCC4)c32)cc1
[6]
  EC50: 2.77 µM (active)
[7]
  IC50: 2.1 µM (active)
[8]
  IC50: > 20 µM (inactive)
[9]
  EC50: > 20 µM (inactive)
[10]
  IC50: 2.39 µM (active)
[11]
  IC50: > 20 µM (inactive)

## CCCCN1C(=O)/C(=N\Nc2ccccc2OC)c2ccccc21
[16]
  IC50: 87.9 µM (active)
[17]
  IC50: 28.7 µM (active)

## CCCCc1c(-c2ccccc2OC)ncn1CCc1cccc(F)c1
[1]
  IC50: 15.3 µM (inactive)
[2]
  EC50: 2.73 µM (active)
[3]
  IC50: 4.33 µM (active)
[4]
  EC50: > 29.9 µM (inactive)

## CC[C@@H]([C@H](C)O)n1ncn(-c2ccc(N3CCN(c4ccc(OC[C@@H]5CO[C@@](Cn6cncn6)(c6ccc(F)cc6F)C5)cc4)CC3)cc2)c1=O
[18]
  IC50: > 10 µM (inactive)
[19]
  IC50: > 10 µM (inactive)

## CCCCn1c(/C=N/Nc2nc3ccccc3[nH]2)nc2ccccc21
[20]
  EC50: 1.66 µM (active)
[21]
  EC50: 43.7 µM (active)
[22]
  EC50: > 350 µM (not active)
[23]
  EC50: 3.74 µM (active)
[24]
  AC50: 3.54 µM (active)

## C[C@]12CC[C@@H]3c4ccc(O)cc4CC[C@H]3[C@@H]1CC[C@@H]2OC(=O)CCC1CCCC1 [ESTRADIOL CYPIONATE]
[25]
  CC50: 30.6 µM (active)
[18]
  IC50: > 10 µM (inactive)
[19]
  IC50: > 10 µM (inactive)

## NCCc1ccc(O)cc1 [TYRAMINE]
[26]
  AC50: inconclusive
[1]
  IC50: > 29.9 µM (inactive)
[2]
  EC50: 0.178 µM (active)
[3]
  IC50: 0.882 µM (active)
[4]
  EC50: > 29.9 µM (inactive)
